Experimental data taken from ChEMBL document CHEMBL5303764, “Data for DCP probe BI-3812” (2023).
Active and inactive are the calls of the source. No cut-off for these calls is given here.

Tests used:
[1] = biological target: T1, Muscarinic acetylcholine receptor M3 (Homo sapiens, UniProt P20309); settings: Compound concentration 10.0 uM
Target sequence in this assay (P20309 whole entry, looked up): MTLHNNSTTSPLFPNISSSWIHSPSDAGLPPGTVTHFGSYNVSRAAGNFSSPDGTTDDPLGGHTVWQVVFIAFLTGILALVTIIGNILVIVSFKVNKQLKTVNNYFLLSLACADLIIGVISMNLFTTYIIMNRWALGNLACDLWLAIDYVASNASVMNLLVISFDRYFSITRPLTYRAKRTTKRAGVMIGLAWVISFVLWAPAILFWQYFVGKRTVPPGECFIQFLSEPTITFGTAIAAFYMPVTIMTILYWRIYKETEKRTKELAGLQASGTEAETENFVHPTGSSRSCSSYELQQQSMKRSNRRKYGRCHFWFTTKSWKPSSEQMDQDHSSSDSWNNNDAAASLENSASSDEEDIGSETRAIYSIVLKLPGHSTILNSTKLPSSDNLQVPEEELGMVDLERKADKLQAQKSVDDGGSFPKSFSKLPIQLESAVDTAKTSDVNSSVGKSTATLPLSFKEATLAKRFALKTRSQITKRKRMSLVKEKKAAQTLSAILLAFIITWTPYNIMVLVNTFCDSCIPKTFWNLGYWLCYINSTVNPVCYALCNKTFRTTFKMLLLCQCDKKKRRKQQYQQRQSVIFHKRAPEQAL

[2] = biological target: Delta-type opioid receptor (Homo sapiens) (UniProt P41143); assay: DELTA2/H Eurofins SafetyScreen44 (BI); settings: Compound concentration 10.0 uM
Chain of Delta-type opioid receptor (Homo sapiens) (P41143 whole entry): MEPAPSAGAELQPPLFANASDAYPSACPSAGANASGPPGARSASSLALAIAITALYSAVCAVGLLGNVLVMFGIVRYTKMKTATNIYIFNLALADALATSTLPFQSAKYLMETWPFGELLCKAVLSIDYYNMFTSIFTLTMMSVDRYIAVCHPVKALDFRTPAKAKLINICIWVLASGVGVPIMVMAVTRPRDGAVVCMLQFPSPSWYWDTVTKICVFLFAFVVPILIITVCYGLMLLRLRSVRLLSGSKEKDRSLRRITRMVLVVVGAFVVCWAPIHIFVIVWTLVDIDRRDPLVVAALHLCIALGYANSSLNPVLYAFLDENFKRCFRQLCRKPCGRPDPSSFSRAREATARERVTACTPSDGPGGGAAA

[3] = biological target: Epidermal growth factor receptor (Homo sapiens) (UniProt P00533); assay: EGFR Invitrogen Lab (UK) kinase screen (BI); settings: Compound concentration 1.0 uM
[4] = biological target: Histamine H1 receptor (Homo sapiens) (UniProt P35367); assay: H1/PYRIL/HS Eurofins SafetyScreen44 (BI); settings: Compound concentration 10.0 uM
[5] = biological target: Alpha-2B adrenergic receptor (Homo sapiens) (UniProt P18089); settings: Compound concentration 10.0 uM
Chain of Alpha-2B adrenergic receptor (Homo sapiens) (P18089 whole entry): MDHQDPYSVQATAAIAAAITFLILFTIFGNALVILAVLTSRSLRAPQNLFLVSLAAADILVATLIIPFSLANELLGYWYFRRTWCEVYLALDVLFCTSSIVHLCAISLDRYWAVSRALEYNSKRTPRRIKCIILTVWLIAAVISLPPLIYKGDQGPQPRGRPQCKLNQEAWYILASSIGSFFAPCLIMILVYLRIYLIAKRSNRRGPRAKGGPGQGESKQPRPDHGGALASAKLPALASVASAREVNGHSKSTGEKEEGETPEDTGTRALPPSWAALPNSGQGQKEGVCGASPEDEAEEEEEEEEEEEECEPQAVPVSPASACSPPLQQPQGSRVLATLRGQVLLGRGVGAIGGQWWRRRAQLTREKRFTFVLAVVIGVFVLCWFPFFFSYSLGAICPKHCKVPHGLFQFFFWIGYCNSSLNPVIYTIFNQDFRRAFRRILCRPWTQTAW

[6] = biological target: Serine/threonine-protein kinase Chk2 (Homo sapiens) (UniProt O96017); assay: CHEK2 Invitrogen Lab (UK) kinase screen (BI); settings: Compound concentration 1.0 uM
[7] = biological target: Histamine H2 receptor (Homo sapiens) (UniProt P25021); settings: Compound concentration 10.0 uM
[8] = biological target: Sodium-dependent noradrenaline transporter (Homo sapiens) (UniProt P23975); assay: NEUP/H Eurofins SafetyScreen44 (BI); settings: Compound concentration 10.0 uM
Chain of Sodium-dependent noradrenaline transporter (Homo sapiens) (P23975 whole entry): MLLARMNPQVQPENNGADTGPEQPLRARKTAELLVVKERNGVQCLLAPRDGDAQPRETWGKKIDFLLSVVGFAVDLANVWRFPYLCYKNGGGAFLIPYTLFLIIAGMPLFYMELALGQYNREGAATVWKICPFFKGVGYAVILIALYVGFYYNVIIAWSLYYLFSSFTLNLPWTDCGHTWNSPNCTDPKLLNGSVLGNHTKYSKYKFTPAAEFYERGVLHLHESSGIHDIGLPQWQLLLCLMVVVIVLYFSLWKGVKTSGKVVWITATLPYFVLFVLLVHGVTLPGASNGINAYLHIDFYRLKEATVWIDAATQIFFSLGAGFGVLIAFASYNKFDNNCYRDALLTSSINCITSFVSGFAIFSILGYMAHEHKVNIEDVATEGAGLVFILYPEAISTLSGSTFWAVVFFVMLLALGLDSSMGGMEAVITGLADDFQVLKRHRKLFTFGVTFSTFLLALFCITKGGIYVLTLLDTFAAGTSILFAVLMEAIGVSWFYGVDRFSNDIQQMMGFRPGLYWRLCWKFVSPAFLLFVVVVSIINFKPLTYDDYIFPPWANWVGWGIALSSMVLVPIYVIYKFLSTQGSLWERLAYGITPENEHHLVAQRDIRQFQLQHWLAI

[9] = biological target: Rho-associated protein kinase 2 (Homo sapiens) (UniProt O75116); assay: ROCK2 Invitrogen Lab (UK) kinase screen (BI); settings: Compound concentration 1.0 uM
[10] = biological target: Beta-2 adrenergic receptor (Homo sapiens) (UniProt P07550); settings: Compound concentration 10.0 uM
Chain of Beta-2 adrenergic receptor (Homo sapiens) (P07550 whole entry, looked up): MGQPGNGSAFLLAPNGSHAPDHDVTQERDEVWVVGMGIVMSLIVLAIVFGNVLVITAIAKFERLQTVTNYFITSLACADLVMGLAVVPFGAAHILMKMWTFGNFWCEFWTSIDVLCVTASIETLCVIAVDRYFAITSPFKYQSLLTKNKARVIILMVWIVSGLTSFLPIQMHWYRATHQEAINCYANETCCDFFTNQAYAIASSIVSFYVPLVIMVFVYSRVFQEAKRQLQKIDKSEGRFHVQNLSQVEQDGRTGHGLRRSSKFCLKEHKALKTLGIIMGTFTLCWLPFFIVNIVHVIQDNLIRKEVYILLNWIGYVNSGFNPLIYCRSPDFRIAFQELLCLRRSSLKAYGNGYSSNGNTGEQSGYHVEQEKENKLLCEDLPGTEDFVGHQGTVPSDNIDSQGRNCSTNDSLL

[11] = biological target: Dual specificity mitogen-activated protein kinase kinase 1 (Homo sapiens) (UniProt Q02750); assay: MAP2K1 Invitrogen Lab (UK) kinase screen (BI); settings: Compound concentration 1.0 uM
[12] = biological target: AMP-activated protein kinase (AMPK) alpha-1/beta-1/gamma-1 (Homo sapiens) (UniProt P54619+Q9Y478+Q13131); assay: AMPK A1B1G1 Invitrogen Lab (UK) kinase screen (BI); format: protein-complex assay; settings: Compound concentration 1.0 uM
[13] = biological target: Muscarinic acetylcholine receptor M2 (Homo sapiens) (UniProt P08172); settings: Compound concentration 10.0 uM
Chain of Muscarinic acetylcholine receptor M2 (Homo sapiens) (P08172 whole entry): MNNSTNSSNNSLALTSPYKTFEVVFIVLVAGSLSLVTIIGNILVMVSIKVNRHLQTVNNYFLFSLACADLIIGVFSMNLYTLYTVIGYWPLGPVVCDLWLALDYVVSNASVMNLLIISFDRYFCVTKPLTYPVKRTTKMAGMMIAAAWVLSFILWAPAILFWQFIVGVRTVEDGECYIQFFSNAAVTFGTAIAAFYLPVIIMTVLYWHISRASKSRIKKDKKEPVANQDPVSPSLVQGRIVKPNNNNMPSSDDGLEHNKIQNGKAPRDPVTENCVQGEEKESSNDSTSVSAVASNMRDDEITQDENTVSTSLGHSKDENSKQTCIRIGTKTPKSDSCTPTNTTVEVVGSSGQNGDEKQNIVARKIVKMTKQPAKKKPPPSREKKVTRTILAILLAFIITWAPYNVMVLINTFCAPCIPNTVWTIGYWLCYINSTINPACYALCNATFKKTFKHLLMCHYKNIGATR

[14] = biological target: 5-hydroxytryptamine receptor 1A (Homo sapiens) (UniProt P08908); assay: 5HT1A/H Eurofins SafetyScreen44 (BI); settings: Compound concentration 10.0 uM
[15] = biological target: Proto-oncogene tyrosine-protein kinase receptor Ret (Homo sapiens) (UniProt P07949); assay: RET Invitrogen Lab (UK) kinase screen (BI); settings: Compound concentration 1.0 uM
[16] = biological target: Muscarinic acetylcholine receptor M2 (Homo sapiens) (UniProt P08172); assay: M2/H Eurofins SafetyScreen44 (BI); settings: filed as antagonist, Compound concentration 10.0 uM
[17] = biological target: D(1A) dopamine receptor (Homo sapiens) (UniProt P21728); assay: D1/H Eurofins SafetyScreen44 (BI); settings: filed as antagonist, Compound concentration 10.0 uM
[18] = biological target: B-cell lymphoma 6 protein (Homo sapiens, UniProt P41182); assay: SPR (BCL6), Ontario institute for cancer research
[19] = biological target: D(2) dopamine receptor (Homo sapiens) (UniProt P14416); assay: D2SH_AGON Eurofins SafetyScreen44 (BI); settings: filed as agonist, Compound concentration 10.0 uM
[20] = biological target: High affinity nerve growth factor receptor (Homo sapiens) (UniProt P04629); assay: NTRK1 Invitrogen Lab (UK) kinase screen (BI); settings: Compound concentration 1.0 uM
[21] = biological target: Serine/threonine-protein kinase Chk1 (Homo sapiens) (UniProt O14757); assay: CHEK1 Invitrogen Lab (UK) kinase screen (BI); settings: Compound concentration 1.0 uM
[22] = biological target: 5-hydroxytryptamine receptor 7 (Homo sapiens) (UniProt P34969); settings: Compound concentration 10.0 uM
Chain of 5-hydroxytryptamine receptor 7 (Homo sapiens) (P34969 whole entry): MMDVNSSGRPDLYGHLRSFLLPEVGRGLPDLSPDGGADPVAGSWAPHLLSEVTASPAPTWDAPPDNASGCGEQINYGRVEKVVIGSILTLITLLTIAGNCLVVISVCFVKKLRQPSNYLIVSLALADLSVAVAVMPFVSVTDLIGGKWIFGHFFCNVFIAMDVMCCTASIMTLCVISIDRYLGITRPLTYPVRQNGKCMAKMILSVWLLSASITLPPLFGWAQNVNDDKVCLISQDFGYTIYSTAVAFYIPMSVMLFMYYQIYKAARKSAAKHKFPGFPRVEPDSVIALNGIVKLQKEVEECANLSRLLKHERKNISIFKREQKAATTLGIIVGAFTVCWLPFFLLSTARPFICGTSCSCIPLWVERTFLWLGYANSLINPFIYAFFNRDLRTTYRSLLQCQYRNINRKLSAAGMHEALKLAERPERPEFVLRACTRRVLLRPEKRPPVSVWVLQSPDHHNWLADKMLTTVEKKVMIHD

[23] = biological target: RAC-beta serine/threonine-protein kinase (Homo sapiens) (UniProt P31751); assay: AKT2 Invitrogen Lab (UK) kinase screen (BI); settings: Compound concentration 1.0 uM
[24] = biological target: T1, Muscarinic acetylcholine receptor M3; assay: M3/H Eurofins SafetyScreen44 (BI); settings: Compound concentration 10.0 uM
Target sequence in this assay (P20309 whole entry, looked up): as the sequence (P20309 whole entry, looked up) above

[25] = biological target: 5-hydroxytryptamine receptor 2B (Homo sapiens) (UniProt P41595); assay: 5HT2B/H AG Eurofins SafetyScreen44 (BI); settings: filed as agonist, Compound concentration 10.0 uM
Chain of 5-hydroxytryptamine receptor 2B (Homo sapiens) (P41595 whole entry): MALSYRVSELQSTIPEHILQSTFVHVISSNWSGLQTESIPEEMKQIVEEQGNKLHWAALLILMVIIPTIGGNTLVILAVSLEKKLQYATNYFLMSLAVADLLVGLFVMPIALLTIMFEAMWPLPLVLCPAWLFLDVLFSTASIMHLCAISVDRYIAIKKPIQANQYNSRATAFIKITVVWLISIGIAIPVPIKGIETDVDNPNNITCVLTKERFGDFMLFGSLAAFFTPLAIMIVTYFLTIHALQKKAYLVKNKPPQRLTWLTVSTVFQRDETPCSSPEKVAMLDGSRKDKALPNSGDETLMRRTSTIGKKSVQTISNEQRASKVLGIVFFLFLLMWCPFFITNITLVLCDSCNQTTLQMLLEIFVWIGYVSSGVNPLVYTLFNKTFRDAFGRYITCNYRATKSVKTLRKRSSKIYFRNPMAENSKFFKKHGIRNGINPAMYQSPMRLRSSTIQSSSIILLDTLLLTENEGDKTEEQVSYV

[26] = biological target: 5-hydroxytryptamine receptor 3A (Homo sapiens) (UniProt P46098); settings: Compound concentration 10.0 uM
Chain of 5-hydroxytryptamine receptor 3A (Homo sapiens) (P46098 whole entry, the tested form may be a part): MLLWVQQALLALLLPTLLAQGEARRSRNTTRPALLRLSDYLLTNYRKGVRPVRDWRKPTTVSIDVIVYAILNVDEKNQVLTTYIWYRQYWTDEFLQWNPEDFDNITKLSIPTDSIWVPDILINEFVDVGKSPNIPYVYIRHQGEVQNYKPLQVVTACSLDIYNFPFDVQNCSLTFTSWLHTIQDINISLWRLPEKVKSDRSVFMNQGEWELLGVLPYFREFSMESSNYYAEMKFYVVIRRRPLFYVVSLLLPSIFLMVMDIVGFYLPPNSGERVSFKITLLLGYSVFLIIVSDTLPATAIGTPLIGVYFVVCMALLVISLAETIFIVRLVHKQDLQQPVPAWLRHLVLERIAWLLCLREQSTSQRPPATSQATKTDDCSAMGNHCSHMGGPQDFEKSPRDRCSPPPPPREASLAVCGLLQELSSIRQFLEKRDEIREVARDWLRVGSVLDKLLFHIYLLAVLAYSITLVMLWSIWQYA

[27] = biological target: Zinc finger and BTB domain-containing protein 32 (Homo sapiens, UniProt Q9Y2Y4); assay: SPR (ZBTB32), Ontario institute for cancer research
[28] = biological target: Proto-oncogene tyrosine-protein kinase Src (Homo sapiens) (UniProt P12931); assay: SRC Invitrogen Lab (UK) kinase screen (BI); settings: Compound concentration 1.0 uM
[29] = biological target: Leucine-rich repeat serine/threonine-protein kinase 2 (Homo sapiens) (UniProt Q5S007); assay: LRRK2 Invitrogen Lab (UK) kinase screen (BI); settings: Compound concentration 1.0 uM
[30] = biological target: Mitogen-activated protein kinase 14 (Homo sapiens) (UniProt Q16539); assay: MAPK14 Invitrogen Lab (UK) kinase screen (BI); settings: Compound concentration 1.0 uM
[31] = biological target: Fibroblast growth factor receptor 1 (Homo sapiens) (UniProt P11362); assay: FGFR1 Invitrogen Lab (UK) kinase screen (BI); settings: Compound concentration 1.0 uM
[32] = biological target: Ribosomal protein S6 kinase alpha-4 (Homo sapiens) (UniProt O75676); assay: RPS6KA4 Invitrogen Lab (UK) kinase screen (BI); settings: Compound concentration 1.0 uM
[33] = biological target: 5-hydroxytryptamine receptor 2B (Homo sapiens) (UniProt P41595); settings: Compound concentration 10.0 uM
[34] = biological target: Glucocorticoid receptor (Homo sapiens) (UniProt P04150); assay: GCORTICOID/H Eurofins SafetyScreen44 (BI); settings: Compound concentration 10.0 uM
[35] = biological target: Androgen receptor (Homo sapiens) (UniProt P10275); assay: ANDROGEN/H Eurofins SafetyScreen44 (BI); settings: Compound concentration 10.0 uM
[36] = biological target: Muscarinic acetylcholine receptor M5 (Homo sapiens) (UniProt P08912); settings: Compound concentration 10.0 uM
[37] = biological target: Serine/threonine-protein kinase PLK1 (Homo sapiens) (UniProt P53350); assay: PLK1 Invitrogen Lab (UK) kinase screen (BI); settings: Compound concentration 1.0 uM
[38] = biological target: Delta-type opioid receptor (Homo sapiens) (UniProt P41143); settings: Compound concentration 10.0 uM
[39] = biological target: Cholecystokinin receptor type A (Homo sapiens) (UniProt P32238); assay: CCKA/H Eurofins SafetyScreen44 (BI); settings: Compound concentration 10.0 uM
[40] = biological target: Protein kinase C alpha type (Homo sapiens) (UniProt P17252); assay: PRKCA Invitrogen Lab (UK) kinase screen (BI); settings: Compound concentration 1.0 uM
[41] = biological target: T1, Muscarinic acetylcholine receptor M3; assay: GPCRScan assay: inhibition of M3; design: radioligand conc. used [nm] 0.3 – 1.0, parental cells stable CHO
Target sequence in this assay (P20309 whole entry): as the sequence (P20309 whole entry, looked up) above

[42] = biological target: Sodium-dependent noradrenaline transporter (Homo sapiens) (UniProt P23975); settings: Compound concentration 10.0 uM
[43] = biological target: Tyrosine-protein kinase Lck (Homo sapiens) (UniProt P06239); assay: LCK_CE Eurofins SafetyScreen44 (BI); settings: Compound concentration 10.0 uM
hERG (KCNH2) = hERG (KCNH2) (Homo sapiens, UniProt Q12809); assay: HERG_DOFETILIDE Eurofins SafetyScreen44 (BI); settings: probe [3H]dofetilide, compound concentration 10 uM, read-out: % Ctrl

inhibition [1]: 65.8% | residual activity [3]: 100% | inhibition [5]: 20.7% | residual activity [6]: 93% | inhibition [7]: 9.74% | residual activity [9]: 97% | inhibition [10]: 1.38% | residual activity [11]: 100% | residual activity [12]: 98% | inhibition [13]: 19.5% | residual activity [15]: 95% | Kd [18]: 0.00257 µM (active) | residual activity [20]: 96% | residual activity [21]: 91% | inhibition [22]: 18.2% | residual activity [23]: 90% | inhibition [26]: 28.1% | Kd [27]: No binding | residual activity [28]: 88% | residual activity [29]: 111% | residual activity [30]: 88% | residual activity [31]: 86% | residual activity [32]: 93% | inhibition [33]: -2.05% | inhibition [36]: -7.06% | residual activity [37]: 100% | inhibition [38]: 17.6% | residual activity [40]: 90% | Ki [41]: > 10 µM | pKi [41]: < 5 | inhibition [42]: 4.8%
SMILES: CNC(=O)COc1cc2cc(Nc3nc(N4CCC(C(=O)N(C)C)CC4)ncc3Cl)cc(OC)c2n(C)c1=O
residual activity [2]: 85% | residual activity [4]: 97% | residual activity [8]: 99% | residual activity [14]: 89% | residual activity [16]: 13% | residual activity [17]: 100% | residual activity [19]: 101% | residual activity [24]: 88% | residual activity [25]: 131% | residual activity [34]: 102% | residual activity [35]: 99% | residual activity [39]: 93% | residual activity [43]: 99% | activity at 10 µM (hERG (KCNH2)): 92% (not active)
